US20070027118A1 (priority 2005, published 2007)
Read-outs that look alike come from different tables or passages of the source.

Experiments:
11β-hsd-1 enzyme [1] = target: T1, 11β-hsd-1 enzyme (Homo sapiens, UniProt P28845); assay: biochemical
Description: The 11β-hsd-1 assay was performed in a 100 mM Triethanolamine buffer pH 8.0, containing 200 mM NaCl, 0.02% n-dodecyl β-D-maltoside, 5% glycerol, 5 mM β-mercaptoethanol. A typical reaction for the determination of Kiapp values was carried at R.T. in a Corning® u-bottom 96-well plate and is described as follows: 11β-hsd-1 enzyme (5 nM, final concentration) was pre-incubated in the presence of the inhibitor and NADPH (500 μM, final concentration) for at least 30 minutes in the assay buffer. When pre-incubation was completed, the reaction was initiated by adding the regenerating system (2 mM Glucose-6-Phosphate, 1U/mL Glucose-6-Phosphate dehydrogenase, and 6 mM MgCl2, all the concentration reported are final in the assay buffer), and 3H-cortisone (200 nM, final concentration). After 60 minutes, 60 μL of the assay mixture was transferred to a second 96-well plate and mixed with an equal volume of dimethylsulfoxide to stop the reaction. A 15 μL aliquot from the reaction mixture was loaded into a C-18 column (Polaris C18-A, 50×4.6 mm, 5 μ, 180 Angstrom from Varian) connected to an automated High-throughput Liquid Chromatography instrument developed by Cohesive Technologies Inc, of Franklin, Mass. USA, with a β-RAM model 3 Radio-HPLC detector from IN/US, of Tampa, Fla. USA. The substrate and product peaks were separated by using an isocratic mixture of 43:57 methanol to water (v/v) at a flow rate of 1.0 mL/min.
The initial reaction velocities were measured by stopping the reaction at 60 min and by measuring the area of product formation in the absence and the presence of various concentrations of inhibitors. The Kiapp values were determined using the equation for tight-binding inhibitor developed by Morrison, J. F. (Morrison J. F. Biochim BiophysActa. 1969; 185: 269-86).
The radiolabeled [1,2-3H]-cortisone is commercially available from American Radiolabeled Chemicals Inc of St. Louis, Mo. USA. NADPH, Glucose-6-Phosphate, and Glucose-6-Phosphate dehydrogenase were purchased from Sigma®.
(Morrison J. F. Biochim Biophys Acta. 1969; 185: 269-86).

11β-hsd-1 enzyme [2] = target: T1, 11β-hsd-1 enzyme; assay: biochemical; settings: for % Inh @ 0.1 mM: Table 2, inhibitor 0.1 mM as printed; for inhibition: read-out: % Inh @ 0.1 mM
Description: Percentage of inhibition was determined in a 100 mM Triethanolamine buffer, pH 8.0, 200 mM NaCl, 0.02% n-dodecyl β-D-maltoside and 5 mM β-ME. A typical reaction was carried on a Corning® u-bottom 96-well plate and is described as follows: 11β-hsd-1 enzyme (5 nM, final concentration) was pre-incubated in the presence of the inhibitor and NADPH (500 μM, final concentration) for at least 30 minutes
in the assay buffer. When pre-incubation was completed, the reaction was initiated by adding the regenerating system (2 mM Glucose-6-Phosphate, 1U/mL Glucose-6-Phosphate dehydrogenase, and 6 mM MgCl2, all the concentration reported are final in the assay buffer), and 3H-cortisone (200 nM, final concentration). After 60 minutes, 60 μL of the assay mixture was transferred to a second 96-well plate and mixed with an equal volume of dimethylsulfoxide to stop the reaction. A 15 μL aliquot from the reaction mixture was loaded into a C-18 column (Polaris C18-A, 50×4.6 mm, 5 μ, 180 Angstrom from Varian) connected to an automated High-throughput Liquid Chromatography instrument developed by Cohesive Technologies Inc of Franklin, Mass., with a […] model 3 Radio-HPLC detector from IN/US of Tampa, Fla. The substrate and product peaks were separated by using an isocratic mixture of 43:57 methanol to water (v/v) at a flow rate of 1.0 mL/min.
Percent Inhibition was calculated based on the following equation: (1-(3H-Cortisol peak area in the […] of inhibitor)×100).

T1 sequence (P28845 whole entry, species assumed): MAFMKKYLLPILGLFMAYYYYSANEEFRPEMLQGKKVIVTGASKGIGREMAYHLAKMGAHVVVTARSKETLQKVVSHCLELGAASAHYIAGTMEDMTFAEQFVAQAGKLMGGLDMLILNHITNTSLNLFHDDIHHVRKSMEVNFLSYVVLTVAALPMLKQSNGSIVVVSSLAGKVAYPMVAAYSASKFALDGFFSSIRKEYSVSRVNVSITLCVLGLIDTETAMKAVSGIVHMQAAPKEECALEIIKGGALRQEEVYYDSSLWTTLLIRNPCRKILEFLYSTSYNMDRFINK

Row | Compound | inhibition (11β-hsd-1 enzyme [2]) [%] | further results
1 | 4-(6-chloro-13-benzoxazol-2- yl)-N-quinolin-2-ylpiperazine- 1-sulfonamide [Example 167] |  | Ki (11β-hsd-1 enzyme [1]; read-out: Klapp, Table 2, 5 nM enzyme, 200 nM 3H-cortisone, 500 μM NADPH): 3.4 nM; % Inh @ 0.1 mM (11β-hsd-1 enzyme [2]): 100%
2 | CCc1cccc(NS(=O)(=O)N2CC[C@@H]3CCCC[C@@H]3C2)n1 (racemic) [Example 120, (4aS*8aS*)-N-(6-ethylpyridin-2-yl)octahydro-isoquinoline-2(1H)-sulfonamide] | 100 | Ki (11β-hsd-1 enzyme [1]): 13 nM
3 | Cc1cc(C)nc(NS(=O)(=O)N2CCN(c3ccc(C(F)(F)F)cn3)CC2)c1 [Example 1, N-(4,6-dimethylpyridin-2-yl)-4-[5-(trifluoromethyl)pyridin-2-yl]piperazine-1-sufonamide] |  | Ki (11β-hsd-1 enzyme [1]): 4.1 nM; inhibition at 0.1 µM (11β-hsd-1 enzyme [2]; read-out: % Inh @ 0.1 μM): 95.9%
4 | CCCOC1CCN(S(=O)(=O)Nc2cccc(CC)n2)CC1 [Example 111, N-(6-ethylpyridin-2-yl)-4-propoxypiperidine-1-sulfonamide] | 50.8 | 
5 | CCc1cccc(NS(=O)(=O)N2C[C@@H]3[C@H](C2)C3(C#N)N2CCOCC2)n1 (some centres unmarked) [Example 115, (1R*5S*6S*)-6-cyano-N-(6-ethylpyridin-2-yl)-6-morpholin-4-yl-3-azabicyclo[3.1.0]hexane-3-sulfonamide] |  | % Inh @ 0.1 mM (11β-hsd-1 enzyme [2]): 0%
6 | Cc1cccc(NS(=O)(=O)N2CCN(c3ccccn3)CC2)n1 [Example 126, N-(6-methylpyridin-2-yl)-4-pyridin-2-ylpiperazine-1-sulfonamide] | 57.8 | 
7 | Cc1cccc(NS(=O)(=O)N2CCCCCC2)n1 [Example 130, N-(6-methylpyridin-2-yl)azepane-1-sulfonamide] | 56.7 | 
8 | Cc1cccc(NS(=O)(=O)N2CCN(c3cc(C#N)ccn3)CC2)n1 [Example 135, 4-(4-cyanopyridin-2-yl)-N-(6-methylpyridin-2-yl)piperazine-1-sulfonamide] | 29.9 | 
9 | CCc1cccc(NS(=O)(=O)N2CCN(Cc3c(F)cccc3F)CC(COC)C2)n1 (centres unmarked) [Example 141, 4-(26-difluorobenzyl)-N-(6-ethylpyridin-2-yl)-6-(methoxymethyl)-14-diazepane-1-sulfonamide] | 13.8 | 
10 | CCc1cccc(NS(=O)(=O)N2CCN(C)CC(COCc3c(F)cccc3F)C2)n1 (centres unmarked) [Example 142, 6-{[(26-difluoro-benzyl)oxy]methyl)-N-(6-ethylpyridin-2-yl)-4-methyl-14-diazepane-1-sulfonamide] | 5.9 | 
11 | CCc1cccc(NS(=O)(=O)N2CCN(c3nc(C)cc(CC(C)C)n3)CC2)n1 [Example 143, N-(6-ethylpyridin-2-yl)-4-(4-isobutyl-6-methylpyrimidin-2-yl)piperazine-1-sulfonamide] | 36.7 | 
12 | CCc1cccc(NS(=O)(=O)N2CCN(c3ccc(C(=O)NC(C)C)cn3)CC2)n1 [Example 146, 6-(4-{[(6-ethylpyridin-2-yl)amino]sulfonyl)piperazin-1-yl)-N-isopropylnicotinamide] | 30.4 | 
13 | CCc1cccc(NS(=O)(=O)N2CCN(c3ccc(C(=O)N4CCOCC4)cn3)CC2)n1 [Example 147, N-(6-ethylpyridin-2-yl)-4-[5-(morpholin-4-ylcarbonyl)pyridin-2-yl]piperazine-1-sulfonamide] | 27.2 | 
14 | Cc1cccc(NS(=O)(=O)N2CCN(c3nc4ncccc4o3)CC2)n1 [Example 152, N-(6-methylpyridin-2-yl)-4-[13]oxazolo[45-b]pyridin-2-ylpiperazine-1-sulfonamide] | 47.6 | 
15 | O=S(=O)(Nc1ccc2ccccc2n1)N1CCN(c2cnccn2)CC1 [Example 158, 4-pyrazin-2-yl-N-quinolin-2-ylpiperazine-1-sulfonamide] | 44.8 | 
16 | O=S(=O)(Nc1ccc2ccccc2n1)N1CCN(c2ncccc2C(F)(F)F)CC1 [Example 159, N-quinolin-2-yl-4-[3-(trifluoromethyl)pyridin-2-yl]piperazine-1-sulfonamide] | 53.4 | 

Row | Compound | inhibition (11β-hsd-1 enzyme [2]) [%] | further results
17 | O=S(=O)(Nc1ccc2ccccc2n1)N1CCCN(c2ncccn2)CC1 [Example 163, 4-pyrimidin-2-yl-N-quinolin-2-yl-14-diazepane-1-sulfonamide] | 10.5 | 
18 | N#Cc1cccnc1N1CCCN(S(=O)(=O)Nc2ccc3ccccc3n2)CC1 [Example 168, 4-(3-cyanopyridin-2-yl)-N-quinolin-2-yl-14-diazepane-1-sulfonamide] | 56.7 | 
19 | COc1cc2c(nn1)CCN(S(=O)(=O)Nc1ccc3ccccc3n1)CC2 [Example 170, 3-methoxy-N-quinolin-2-yl-5689-tetrahydro-7H-pyridazino[34-d]azepine-7-sulfonamide] | 21.2 | 
20 | CCc1cccc(NS(=O)(=O)N2CCCN(c3ncccn3)CC2)n1 [Example 172, N-(6-ethylpyridin-2-yl)-4-pyrimidin-2-yl-14-diazepane-1-sulfonamide] | 60.2 | 
21 | O=S(=O)(Nc1ccc2ccccc2n1)N1CCOc2ccccc2C1 [Example 174, N-quinolin-2-yl-23-dihydro-14-benzoxazepine-4(5H)-sulfonamide] | 57.9 | 
22 | Cc1cc(CC(C)C)nc(N2CCN(S(=O)(=O)Nc3ccc4ccccc4n3)CC2)n1 [Example 175, 4-(4-isobutyl-6-methyl-pyrimidin-2-yl)-N-quinolin-2-ylpiperazine-1-sulfonamide] | 50 | 
23 | CC(C)NC(=O)c1ccc(N2CCN(S(=O)(=O)Nc3ccc4ccccc4n3)CC2)nc1 [Example 177, N-isopropyl-6-{4-[(quinolin-2-ylamino)sulfonyl]piperazin-1-yl}nicotinamide] | 59.4 | 
24 | Cc1ccc2oc(N3CCN(S(=O)(=O)Nc4ccc5ccccc5n4)CC3)nc2n1 [Example 179, 4-(5-methyl[13]oxazolo[45-b]pyridin-2-yl)-N-quinolin-2-ylpiperazine-1-sulfonamide] | 0 | 
25 | CCc1cccc(NS(=O)(=O)N2CCCN(C(=O)OCc3ccccc3)CC2)n1 [Example 182, benzyl 4-{[(6-ethylpyridin-2-yl)amino]sulfonyl}-14-diazepane-1-carboxylate] | 61 | 
26 | CCc1cccc(NS(=O)(=O)N2CCN(c3cc(C#N)ccn3)CC2)n1 [Example 184, 4-(4-cyanopyridin-2-yl)-N-(6-ethylpyridin-2-yl)piperazine-1-sulfonamide] | 16.8 | 
27 | CCc1cccc(NS(=O)(=O)N2CCN(c3nc4cc(OC)ccc4o3)CC2)n1 [Example 185, N-(6-ethylpyridin-2-yl)-4-(5-methoxy-13-benzoxazol-2-yl)piperazine-1-sulfonamide] | 48.9 | 
28 | CCc1cccc(NS(=O)(=O)N2CCN(c3cc(C)nc(C)c3)CC2)n1 [Example 188, 4-(26-dimethylpyridin-4-yl)-N-(6-ethylpyridin-2-yl)piperazine-1-sulfonamide] | 5.5 | 
29 | CCc1cccc(NS(=O)(=O)N2CCN(c3ccc(C)cc3)C(=O)C2)n1 [Example 189, N-(6-ethylpyridin-2-yl)-4-(4-methylphenyl)-3-oxopiperazine-1-sulfonamide] | 24.9 | 
30 | CCc1cccc(NS(=O)(=O)N2CCc3cc(OC)c(OC)cc3C2)n1 [Example 192, N-(6-ethylpyridin-2-yl)-67-dimethoxy-34-dihydroisoquinoline-2(1H)-sulfonamide] | 29.4 | 
31 | CCc1cccc(NS(=O)(=O)N2CCN(c3cnccn3)CC2)n1 [Example 199, N-(6-ethylpyridin-2-yl)-4-pyrazin-2-ylpiperazine-1-sulfonamide] | 31.3 | 
32 | CCc1cccc(NS(=O)(=O)N2Cc3ccccc3C2)n1 [Example 202, N-(6-ethylpyridin-2-yl)-13-dihydro-2H-isoindole-2-sulfonamide] | 2.4 | 
